According to patent US20090048112A1, “Novel Herbicides” (SYNGENTA LIMITED, priority 2005, published 2009):

Columns and labels:
[1] = tested on: Monocotyledonous and dicotyledonous test plants; assay: Example B3: herbicidal action prior to emergence (pre-emergence), 96-cell seed trays, 1000 g/ha; assay type: in vivo; set-up: key: 0 is no damage to plant; 5 is total damage to plant; conditions: 9 days after application; for AGSTE herbicidal effect (visual assessment, scale 0-5): Agrostis tenius (Colonial bentgrass); for AMARE herbicidal effect (visual assessment, scale 0-5): Amaranthus retroflexus (redroot pigweed); for DIGSA herbicidal effect (visual assessment, scale 0-5): Digitaria sanguinalis (hairy finger-grass); for POATR herbicidal effect (visual assessment, scale 0-5): Poa trivialis (rough blue grass); for SETIT herbicidal effect (visual assessment, scale 0-5): Setaria italica (foxtail millet)
Procedure: Monocotyledonous and dicotyledonous test plants were sown in sterilised standard soil in seed trays each with 96 cells. The seed trays were stored under controlled conditions in a climatic chamber for one day (cultivation at 23° C. during the day and 17° C. at night; 13 hours of light; 50-60% humidity). The chemicals were applied to the soil surface. The application was carried out with an aqueous suspension of the test substances, prepared as a formulation in water with 10% dimethyl sulfoxide (CAS RN 67-68-5), to achieve a field equivalent of 1000 l/ha. The application rate of the test substances was 1000 g/ha. The plants were grown on in the climatic chamber for 9 days (cultivation at 24° C. during the day and 19° C. at night; 13 hours of light; 50-60% humidity). A visual assessment of the herbicidal effect was made at 9 days after application. The following scale was used for assessment: 0, 1, 2, 3, 4 and 5 (where 0 is no damage to plant and 5 is total damage to plant).

[2] = tested on: Monocotyledonous and dicotyledonous test plants; assay: Example B1: herbicidal action prior to emergence (pre-emergence), 500 g/ha; assay type: in vivo; conditions: 13 days after application, 0 = no damage, 100 = plants completely dead; for ALOMY herbicidal effect (visual assessment, percentage scale): Alopecurus myosuroides (slender foxtail); for AMARE herbicidal effect (visual assessment, percentage scale): Amaranthus retroflexus (redroot pigweed); for ECHCG herbicidal effect (visual assessment, percentage scale): Echinochloa crus-galli (barnyard grass); for STEME herbicidal effect (visual assessment, percentage scale): Stellaria media (chickweed)
Procedure: Monocotyledonous and dicotyledonous test plants were sown in seed trays in standard compost. The trays were watered twice daily or as required. The chemicals were applied by track sprayer at the soil surface. The application was carried out with an aqueous suspension of the test substances, prepared as a formulation of 50% acetone in water with 0.5% Tween 20™ (CAS RN 9005-64-5), to achieve a field equivalent of 1000 l/ha. The application rate of the test substances was 500 g/ha. A visual assessment of the herbicidal effect was made at 13 days after application. The following percentage scale was used for assessment: 0, 5, 10, 20, 30, 40, 50, 60, 70, 80, 90, 95, 100 (where 0 is no damage to plants and 100 is plants are completely dead).

Row | SMILES | AGSTE herbicidal effect (visual assessment, scale 0-5) [1] | AMARE herbicidal effect (visual assessment, scale 0-5) [1] | DIGSA herbicidal effect (visual assessment, scale 0-5) [1] | POATR herbicidal effect (visual assessment, scale 0-5) [1] | SETIT herbicidal effect (visual assessment, scale 0-5) [1] | ALOMY herbicidal effect (visual assessment, percentage scale) [2] [%] | AMARE herbicidal effect (visual assessment, percentage scale) [2] [%] | ECHCG herbicidal effect (visual assessment, percentage scale) [2] [%] | STEME herbicidal effect (visual assessment, percentage scale) [2] [%]
1 | Cn1nc(C(F)(F)F)c(C[S+]([O-])c2ncc(Cl)s2)c1[S+](C)[O-] (single isomer, unassigned) [Compound No. 1.090] | 5 | 3 | 5 | 4 | 5 | – | – | – | –
2 | Cn1nc(C(F)(F)F)c(C[S+]([O-])c2ncc(C(F)F)s2)c1OCC(F)(F)F (racemic) [Compound 1.086] | 5 | 5 | 5 | 5 | 4 | – | – | – | –
3 | Cn1nc(C(F)(F)F)c(CSc2ncc(Cl)s2)c1OC(CF)CF [Compound No. 1.112] | 5 | 4 | 5 | 0 | 0 | – | – | – | –
4 | Cn1nc(C(F)(F)F)c(C(Cl)S(=O)(=O)c2ncc(Cl)s2)c1Cl (racemic) [Compound No. 1.043] | – | – | – | – | – | 0 | 80 | 95 | 0
5 | Cn1nc(C(F)(F)F)c(C[S+]([O-])c2ncc(Cl)s2)c1OCC(F)F (racemic) [Compound 1.116] | 5 | 5 | 5 | 5 | 5 | – | – | – | –
6 | Cn1nc(C(F)(F)F)c(C[S+]([O-])c2nccs2)c1OCC(F)(F)F (racemic) [Compound 1.048] | – | – | – | – | – | 80 | 95 | 95 | 80
7 | Cn1nc(C(F)(F)F)c(CS(=O)(=O)c2ncc(Br)s2)c1F [Compound No. 1.012] | – | – | – | – | – | 70 | 90 | 95 | 0
8 | Cn1nc(C(F)(F)F)c(C[S+]([O-])c2ncc(Cl)s2)c1[S+](C)[O-] (single isomer, unassigned) [Compound No. 1.091] | 5 | 4 | 4 | 0 | 4 | – | – | – | –
9 | CCS(=O)(=O)c1c(CS(=O)(=O)c2ncc(Cl)s2)c(C(F)(F)F)nn1C [Compound No. 1.081] | 5 | 5 | 0 | 0 | 4 | – | – | – | –
10 | Cn1nc(OC(F)F)c(C[S+]([O-])c2ncc(Cl)s2)c1C(F)(F)F (racemic) [Compound 1.054] | – | – | – | – | – | 95 | 100 | 95 | 30
11 | Cn1nc(C(F)(F)F)c(CS(=O)(=O)c2ncc(Cl)s2)c1Cl [Compound No. 1.018] | – | – | – | – | – | 60 | 100 | 95 | 0
12 | Cn1nc(C(F)(F)F)c(CS(=O)(=O)c2ncc(Cl)s2)c1F [Compound No. 1.009] | – | – | – | – | – | 0 | 95 | 95 | 0
13 | Cn1nc(C(F)(F)F)c(C(F)(F)S(=O)(=O)c2ncc(Br)s2)c1OCC(F)(F)F [Compound No. 1.042] | – | – | – | – | – | 60 | 100 | 95 | 90
14 | Cn1nc(C(F)(F)F)c(C(F)S(=O)(=O)c2ncc(Cl)s2)c1Cl (racemic) [Compound No. 1.045] | – | – | – | – | – | 70 | 100 | 100 | 0
15 | Cn1nc(C(F)(F)F)c(CSc2ncc(Br)s2)c1F [Compound No. 1.010] | – | – | – | – | – | 60 | 70 | 80 | 0
16 | Cn1nc(C(F)(F)F)c(C(F)(Cl)S(=O)(=O)c2ncc(Cl)s2)c1Cl (racemic) [Compound No. 1.044] | – | – | – | – | – | 40 | 95 | 95 | 90
17 | Cn1nc(C(F)(F)F)c(C(F)S(=O)(=O)c2ncc(Br)s2)c1Cl (racemic) [Compound No. 1.032] | – | – | – | – | – | 60 | 80 | 80 | 60
18 | Cn1nc(C(F)(F)F)c(CS(=O)(=O)c2nccs2)c1OCC(F)(F)F [Compound 1.049] | – | – | – | – | – | 30 | 95 | 95 | 10
19 | Cn1nc(C(F)(F)F)c(CS(=O)(=O)c2ncc(Cl)s2)c1OCC(F)(F)F [Compound No. 1.015] | – | – | – | – | – | 90 | 95 | 95 | 80
20 | Cn1nc(C(F)(F)F)c(C(Cl)S(=O)(=O)c2ncc(Br)s2)c1OCC(F)(F)F (racemic) [Compound No. 1.039] | – | – | – | – | – | 60 | 95 | 95 | 0
21 | Cn1nc(C(F)(F)F)c(C[S+]([O-])c2ncc(Cl)s2)c1F (racemic) [Compound 1.008] | – | – | – | – | – | 95 | 100 | 95 | 80
22 | Cn1nc(C(F)(F)F)c(CSc2ncc(Cl)s2)c1F [Compound No. 1.007] | – | – | – | – | – | 95 | 80 | 95 | 40
23 | Cn1nc(C(F)(F)F)c(CS(=O)(=O)c2nc(Br)cs2)c1OCC(F)(F)F [Compound 1.029] | – | – | – | – | – | 0 | 95 | 0 | 95
24 | Cn1nc(C(F)(F)F)c(C(F)(Cl)S(=O)(=O)c2ncc(Cl)s2)c1OCC(F)(F)F (racemic) [Compound No. 1.035] | – | – | – | – | – | 0 | 95 | 95 | 20
25 | Cn1nc(C(F)(F)F)c(C(Cl)S(=O)(=O)c2ncc(Cl)s2)c1OCC(F)(F)F (racemic) [Compound No. 1.034] | – | – | – | – | – | 70 | 100 | 95 | 40
26 | Cn1nc(C(F)(F)F)c(C[S+]([O-])c2ncc(Br)s2)c1F (racemic) [Compound 1.011] | – | – | – | – | – | 95 | 95 | 95 | 10
